Reference: patent US8076332B2, “N- (2-aminophenyl) benzamide derivative having urea structure” (Santen Pharmaceutical Co., Ltd., priority 2006, dated 2011)

Test system: human trabecular meshwork cell line (TM-1 cells)
Experiment: Test for evaluation of effect of morphological change on trabecular meshwork cells (cell shape index, CSI)
Format: cell-based
Details: final concentration 10 μM, incubation 24 hours, CSI=4π×(Cell Area)/(Cell Perimeter)^2, average per group, Control 0.730
Protocol: 1. Test for Evaluation of Effect of Morphological Change on Trabecular Meshwork Cells
As a method for evaluating a cellular morphological change, an evaluation system using the cell shape index (hereinafter referred to as “CSI”) as an index has been reported in The Journal of Clinical Investigation, 103, 1141-1150 (1999). Therefore, according to the method described in the above document, an effect of morphological change of the present compounds on trabecular meshwork cells was evaluated.
A human trabecular meshwork cell line (hereinafter referred to as “TM-1 cells”) reported in Investigative Opthalmology & Visual Science, 43, 151-161 (2002) was used.
Culture medium 1: A reagent was prepared by adding fetal bovine serum (10%), L-glutamine (2 mM), amphotericin B (2.5 μg/mL), and gentamicin (25 μg/mL) to Dulbecco's modified Eagle medium (hereinafter referred to as “D-MEM”).
Culture medium 2: Fetal bovine serum (3%), L-glutamine (2 mM), amphotericin B (2.5 μg/mL), and gentamicin (25 μg/mL) were added to D-MEM.
Cell staining liquid: A mixed liquid of Calcein-AM (16 μM) and Hoechst 33342 (40 μM) was prepared by diluting a Calcein-AM solution (cytoplasmic staining reagent, manufactured by Dojindo Laboratories) and a Hoechst 33342 solution (nuclear staining reagent, manufactured by Dojindo Laboratories) with D-MEM containing L-glutamine (2 mM), amphotericin B (2.5 μg/mL), and gentamicin (25 μg/mL).
TM-1 cells subcultured at 37° C. in a 8% carbon dioxide gas atmosphere were treated with a trypsin/EDTA solution (0.05% trypsin and 0.53 mM tetrasodium ethylenediaminetetraacetate) at 24 hours before performing a drug treatment mentioned below and seeded on a 96-well culture plate. The culture medium 1 was used for the subculture of the cells. The culture medium 2 was used for the cell culture after seeding the cells on the plate.
A test compound was dissolved in dimethyl sulfoxide, whereby a 5 mM solution was prepared. Then, the resulting solution was diluted with the culture medium 2, whereby a 200 μM test compound solution was prepared.
It has been reported that Y-27632 which is a Rho kinase inhibitor induces a morphological change in trabecular meshwork cells in Investigative Ophthalmology & Visual Science, 42, 137-144 (2001). Therefore, Y-27632 (produced according to the method described in WO 90/05723) was used as a positive control, and dissolved in dimethyl sulfoxide in the same manner as the test compound, whereby a 5 mM solution was prepared, and then, the resulting solution was diluted with the culture medium 2, whereby a 200 μM positive control compound solution was prepared.
1) To a 96-well culture plate, a solution of TM-1 cells adjusted to a cell density of […] was added in an amount of 95 μL (1.5×10^4 cells) per well.
2) Incubation was performed at 37° C. in a 8% carbon dioxide gas atmosphere for 24 hours.
3) The test compound solution or positive control compound solution was added in an amount of 5 μL per well (the final concentration of the test compound or positive control compound was 10 μM). As a control, the culture medium 2 containing dimethyl sulfoxide (4%) was added in an amount of 5 μL per well.
4) Incubation was performed at 37° C. in a 8% carbon dioxide gas atmosphere for 24 hours.
5) The cell staining liquid was added in an amount of 10 μL per well.
6) Incubation was performed at 37° C. in a 8% carbon dioxide gas atmosphere for 1 hour to stain the cells.
7) A 37% formaldehyde solution was added in an amount of 10 μL per well.
8) Incubation was performed at room temperature for 1 hour to fix the cells.
9) Washing with phosphate-buffered saline was performed.
10) Using Array Scan Vti HCS reader (manufactured by Cellomics), images of stained cells magnified with a 20 times objective lens were captured in 80 fields (10 fields×8 wells) per test compound addition group.
11) CSI was calculated for each cell and an average value was obtained for each test compound addition group. […]

| Structure (SMILES) | CSI |
| --- | --- |
| CN(C)c1ccc(NC(=O)N(CCCN2CCCC2=O)Cc2ccc(C(=O)Nc3ccccc3N)cc2)cc1 [Compound 1-43, N-(2-Aminophenyl)-4-[3-(4-dimethylaminophenyl)-1-[3-(pyrrolidin-2-on-1-yl)propyl]ureidomethyl]benzamide] | 0.679 |
| COc1ccccc1NC(=O)N(CCCN(C)C)Cc1ccc(C(=O)Nc2ccccc2N)cc1 [Compound 2-3, N-(2-Aminophenyl)-4-[1-(3-dimethylaminopropyl)-3-(2-methoxyphenyl)ureidomethyl]benzamide] | 0.618 |
| COc1cccc(NC(=O)N(CCCN2CCOCC2)Cc2ccc(C(=O)Nc3ccccc3N)cc2)c1 [Compound 1-58, N-(2-Aminophenyl)-4-[3-(3-methoxyphenyl)-1-[3-(mor-pholin-4-yl)propyl]ureido-methyl]benzamide] | 0.610 |
| C[C@@H](N)[C@H]1CC[C@H](C(=O)Nc2ccncc2)CC1 [Compound Y-27632, reference compound] | 0.600 |
| CN(C)CCCCN(Cc1ccc(C(=O)Nc2ccccc2N)cc1)C(=O)Nc1ccc(N(C)C)cc1 [Compound 1-53, N-(2-Aminophenyl)-4-[1-(4-dimethylaminobutyl)-3-(4-dimethylaminoiphenyl)ureido-methyl]benzamide] | 0.538 |
| CN(C)CCN(Cc1ccc(C(=O)Nc2ccccc2N)cc1)C(=O)NCc1ccccc1 [Compound 1-5, N-(2-Aminophenyl)-4-[3-benzyl-1-(2-dimethylaminoethyl)ureidomethyl]benzamide] | 0.636 |
| CCN1CCCC1CN(Cc1ccc(C(=O)Nc2ccccc2N)cc1)C(=O)Nc1ccc2c(c1)OCCO2 (stereo not shown) [Compound 1-50, N-(2-Aminophenyl)-4-[3-(2,3-dihydrobenzo[1,4]dioxin-6-yl)-1-(1-ethylpyrrolidin-2-ylmethyl)ureidomethyl] benzamide] | 0.617 |
| CN(C)CC(C)(C)CN(Cc1ccc(C(=O)Nc2ccccc2N)cc1)C(=O)Nc1ccc(CC#N)cc1 [Compound 1-38, N-(2-Aminophenyl)-4-[3-(4-cyanomethylphenyl)-1-(3-dimethylamino-2,2-dimethyl-propyl)ureidomethyl]benz-amide] | 0.616 |
| CN(C)CCCN(Cc1ccc(C(=O)Nc2ccccc2N)cc1)C(=O)NC(C)(C)C [Compound 2-5, N-(2-Aminophenyl)-4-[3-t-butyl-1-(3-dimethylaminopropyl)ureidomethyl]benzamide] | 0.570 |
| Nc1ccccc1NC(=O)c1ccc(CN(CCCN2CCCC2)C(=O)Nc2ccc3c(c2)OCCO3)cc1 [Compound 1-169, N-(2-Aminophenyl)-4-[3-(2,3-dihydrobenzo[1,4]dioxin-6-yl)-1-[3-(pyrrolidin-1-yl)propyl]ureidomethyl]benz-amide] | 0.566 |
